Experimental data published in ChEMBL document CHEMBL4831480, “Identification of First-in-Class Inhibitors of Kallikrein-Related Peptidase 6 That Promote Oligodendrocyte Differentiation” (J Med Chem, 2021).

Tested on: Cortical neurone
Test: Cytotoxicity against Swiss mouse cortical cells assessed as cell viability at 25 uM incubated for 24 hrs by XTT assay
Type: cell-based

In the case of CC(C)(C)c1ccc(O)c(C(=O)Nc2ccc(CN)cc2)c1.Cl, the Activity is reported as “Toxic”.
